Assay results from ChEMBL document CHEMBL1201862, “PubChem BioAssay data set” (2004).
Calls of active or inactive are those of the source.

Experiments:
Format in all cases: functional
[1] = biological target: Aurora kinase B (Homo sapiens, UniProt Q96GD4)
[2] = biological target: Serine/threonine-protein kinase PLK4 (Homo sapiens, UniProt O00444);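 further: PLK4 measured as one member of a kinome-wide kinase profiling panel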
[3] = biological target: Homeodomain-interacting protein kinase 4 (Homo sapiens, UniProt Q8NE63)
Homeodomain-interacting protein kinase 4, sequence (Q8NE63 whole entry): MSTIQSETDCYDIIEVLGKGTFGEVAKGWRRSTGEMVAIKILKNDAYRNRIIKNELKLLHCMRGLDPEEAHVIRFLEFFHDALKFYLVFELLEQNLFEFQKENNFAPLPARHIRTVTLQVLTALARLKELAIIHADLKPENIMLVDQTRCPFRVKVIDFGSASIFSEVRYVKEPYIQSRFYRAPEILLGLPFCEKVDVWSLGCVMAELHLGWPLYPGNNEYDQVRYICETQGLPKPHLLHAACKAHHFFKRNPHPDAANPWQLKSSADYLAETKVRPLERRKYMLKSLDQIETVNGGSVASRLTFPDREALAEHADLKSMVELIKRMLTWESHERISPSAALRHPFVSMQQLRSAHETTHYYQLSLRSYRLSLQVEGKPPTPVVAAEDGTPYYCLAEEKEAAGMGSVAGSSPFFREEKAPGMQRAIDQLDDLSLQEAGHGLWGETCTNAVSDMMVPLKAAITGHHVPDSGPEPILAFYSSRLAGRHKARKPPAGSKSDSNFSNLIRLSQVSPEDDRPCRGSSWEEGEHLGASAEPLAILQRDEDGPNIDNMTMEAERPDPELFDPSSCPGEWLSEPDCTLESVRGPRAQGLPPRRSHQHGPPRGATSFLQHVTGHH

[4] = biological target: Tyrosine-protein kinase FRK (Homo sapiens, UniProt P42685);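 further: FRK tested as one member of a kinome panel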
[5] = biological target: Tyrosine-protein kinase Fyn (Homo sapiens, UniProt P06241)
[6] = biological target: Lymphokine-activated killer T-cell-originated protein kinase (Homo sapiens, UniProt Q96KB5);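 further: value comes from a kinase panel screen in which TOPK was one of the panel members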
Lymphokine-activated killer T-cell-originated protein kinase, sequence (Q96KB5 whole entry): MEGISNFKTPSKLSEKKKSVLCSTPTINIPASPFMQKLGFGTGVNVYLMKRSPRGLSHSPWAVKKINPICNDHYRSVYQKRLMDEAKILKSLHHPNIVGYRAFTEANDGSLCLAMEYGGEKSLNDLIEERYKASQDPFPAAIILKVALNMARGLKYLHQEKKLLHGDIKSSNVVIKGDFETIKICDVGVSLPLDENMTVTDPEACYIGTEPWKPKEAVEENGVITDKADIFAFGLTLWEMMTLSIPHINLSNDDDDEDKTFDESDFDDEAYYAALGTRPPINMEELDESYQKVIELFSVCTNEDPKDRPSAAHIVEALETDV

[7] = biological target: cAMP-dependent protein kinase catalytic subunit alpha (Homo sapiens, UniProt P17612)
[8] = biological target: Serine/threonine-protein kinase 3 (Homo sapiens, UniProt Q13188);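 further: measured as one member of a kinome-wide kinase panel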
Serine/threonine-protein kinase 3, sequence (Q13188 whole entry): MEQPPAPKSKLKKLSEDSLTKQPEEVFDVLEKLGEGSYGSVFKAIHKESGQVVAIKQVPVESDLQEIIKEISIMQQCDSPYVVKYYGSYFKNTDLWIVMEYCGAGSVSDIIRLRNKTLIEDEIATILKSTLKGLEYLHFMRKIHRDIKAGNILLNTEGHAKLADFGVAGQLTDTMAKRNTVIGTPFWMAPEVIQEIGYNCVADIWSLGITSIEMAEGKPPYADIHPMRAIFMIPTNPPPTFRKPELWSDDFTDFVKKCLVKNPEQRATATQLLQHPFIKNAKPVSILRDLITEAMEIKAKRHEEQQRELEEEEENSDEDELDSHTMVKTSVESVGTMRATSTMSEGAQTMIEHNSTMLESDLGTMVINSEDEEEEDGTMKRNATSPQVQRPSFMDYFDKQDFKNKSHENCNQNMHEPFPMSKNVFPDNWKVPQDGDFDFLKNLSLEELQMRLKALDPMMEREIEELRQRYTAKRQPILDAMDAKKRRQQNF

[9] = biological target: Mitogen-activated protein kinase 8 (Homo sapiens, UniProt P45983);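 further: value comes from one member of a kinome-wide kinase profiling panel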
[10] = biological target: Serine/threonine-protein kinase MRCK alpha (Homo sapiens, UniProt Q5VT25)
Serine/threonine-protein kinase MRCK alpha, sequence (Q5VT25 whole entry): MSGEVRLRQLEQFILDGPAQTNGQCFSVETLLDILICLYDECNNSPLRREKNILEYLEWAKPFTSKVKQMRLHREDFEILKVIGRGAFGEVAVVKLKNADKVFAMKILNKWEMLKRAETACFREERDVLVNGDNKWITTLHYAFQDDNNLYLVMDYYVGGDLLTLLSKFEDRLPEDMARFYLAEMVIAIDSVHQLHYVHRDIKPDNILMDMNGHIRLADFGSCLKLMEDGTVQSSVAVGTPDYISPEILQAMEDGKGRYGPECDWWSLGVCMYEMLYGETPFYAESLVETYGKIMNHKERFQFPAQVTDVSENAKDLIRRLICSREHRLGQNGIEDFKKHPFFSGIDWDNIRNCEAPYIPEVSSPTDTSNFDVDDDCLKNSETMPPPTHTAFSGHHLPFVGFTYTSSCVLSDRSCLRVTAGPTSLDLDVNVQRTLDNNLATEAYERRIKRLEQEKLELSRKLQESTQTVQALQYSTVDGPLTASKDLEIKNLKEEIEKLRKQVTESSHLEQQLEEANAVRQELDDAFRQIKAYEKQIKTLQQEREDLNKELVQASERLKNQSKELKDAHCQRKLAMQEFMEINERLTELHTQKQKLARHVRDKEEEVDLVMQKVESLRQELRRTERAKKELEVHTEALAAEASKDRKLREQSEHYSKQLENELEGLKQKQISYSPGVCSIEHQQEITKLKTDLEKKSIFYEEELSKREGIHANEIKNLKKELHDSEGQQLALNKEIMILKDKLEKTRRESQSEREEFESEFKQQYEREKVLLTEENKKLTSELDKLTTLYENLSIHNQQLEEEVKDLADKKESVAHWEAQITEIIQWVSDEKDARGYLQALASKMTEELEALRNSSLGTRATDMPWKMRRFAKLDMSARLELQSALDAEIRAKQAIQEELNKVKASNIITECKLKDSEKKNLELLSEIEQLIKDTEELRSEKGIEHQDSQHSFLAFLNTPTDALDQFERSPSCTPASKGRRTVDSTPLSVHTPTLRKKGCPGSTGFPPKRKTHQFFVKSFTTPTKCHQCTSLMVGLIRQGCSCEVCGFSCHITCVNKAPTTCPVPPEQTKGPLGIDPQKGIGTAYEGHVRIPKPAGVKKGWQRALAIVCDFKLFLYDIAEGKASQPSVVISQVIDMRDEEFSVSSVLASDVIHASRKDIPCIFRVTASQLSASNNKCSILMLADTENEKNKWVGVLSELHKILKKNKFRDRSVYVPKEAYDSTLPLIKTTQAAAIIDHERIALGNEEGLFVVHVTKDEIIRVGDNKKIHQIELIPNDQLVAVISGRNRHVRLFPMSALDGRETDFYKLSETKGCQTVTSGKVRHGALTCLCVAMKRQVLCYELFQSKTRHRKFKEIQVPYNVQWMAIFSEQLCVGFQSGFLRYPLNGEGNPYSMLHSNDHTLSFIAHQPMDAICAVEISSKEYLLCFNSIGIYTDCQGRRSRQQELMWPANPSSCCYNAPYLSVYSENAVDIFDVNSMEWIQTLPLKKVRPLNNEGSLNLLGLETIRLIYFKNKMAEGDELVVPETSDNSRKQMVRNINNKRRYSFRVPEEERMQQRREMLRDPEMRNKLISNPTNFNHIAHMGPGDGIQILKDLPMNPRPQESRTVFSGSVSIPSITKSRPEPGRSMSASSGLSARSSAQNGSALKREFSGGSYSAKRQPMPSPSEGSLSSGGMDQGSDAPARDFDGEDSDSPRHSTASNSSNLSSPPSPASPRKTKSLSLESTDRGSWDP

[11] = biological target: Calcium/calmodulin-dependent protein kinase type II subunit delta (Homo sapiens, UniProt Q13557)
[12] = biological target: MAP kinase-activated protein kinase 3 (Homo sapiens, UniProt Q16644);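 further: value comes from a kinome-wide profiling panel in which MAPKAPK3 is one of the panel members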
MAP kinase-activated protein kinase 3, sequence (Q16644 whole entry): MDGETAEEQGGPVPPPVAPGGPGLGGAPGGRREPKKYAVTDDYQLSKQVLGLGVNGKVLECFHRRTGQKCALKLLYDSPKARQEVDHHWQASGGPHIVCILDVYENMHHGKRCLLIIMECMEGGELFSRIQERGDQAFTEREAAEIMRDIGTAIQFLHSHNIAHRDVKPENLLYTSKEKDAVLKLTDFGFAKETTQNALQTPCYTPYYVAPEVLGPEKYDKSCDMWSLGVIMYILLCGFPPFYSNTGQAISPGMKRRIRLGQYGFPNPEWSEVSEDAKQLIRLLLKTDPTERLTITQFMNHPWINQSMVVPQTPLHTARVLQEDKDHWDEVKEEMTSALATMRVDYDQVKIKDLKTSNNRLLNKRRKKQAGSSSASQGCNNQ

[13] = biological target: Glucose-6-phosphate 1-dehydrogenase (Homo sapiens, UniProt P11413); experiment: inhibition of Homo sapiens G6PD, dose series – biochemical, fluorescence, selectivity assay for P. falciparum G6PD inhibitor project, dose response (AID 504792)
Glucose-6-phosphate 1-dehydrogenase, sequence (P11413 whole entry): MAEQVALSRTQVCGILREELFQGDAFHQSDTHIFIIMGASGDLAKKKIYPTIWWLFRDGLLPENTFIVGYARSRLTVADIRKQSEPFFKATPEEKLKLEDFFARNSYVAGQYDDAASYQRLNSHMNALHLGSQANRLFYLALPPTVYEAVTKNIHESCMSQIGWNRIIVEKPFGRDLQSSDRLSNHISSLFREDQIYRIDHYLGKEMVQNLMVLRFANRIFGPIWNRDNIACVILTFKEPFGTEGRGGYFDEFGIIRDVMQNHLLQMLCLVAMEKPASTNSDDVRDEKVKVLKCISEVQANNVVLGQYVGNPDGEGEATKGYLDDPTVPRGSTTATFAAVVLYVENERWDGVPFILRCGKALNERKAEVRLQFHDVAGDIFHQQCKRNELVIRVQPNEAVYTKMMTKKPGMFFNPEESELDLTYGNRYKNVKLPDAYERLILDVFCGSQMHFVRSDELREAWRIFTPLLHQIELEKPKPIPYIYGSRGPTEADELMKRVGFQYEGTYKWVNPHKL

[14] = tested on: HEK293; experiment: EBV LMP1 TES2 canonical NF-kB signalling blockers – cell-based, HEK293, luciferase, cherry-pick, dose response (AID 588343); conditions: Homo sapiens
[15] = biological target: T1, Apoptotic protease-activating factor 1 (Homo sapiens, UniProt O14727)
T1 sequence (O14727 whole entry): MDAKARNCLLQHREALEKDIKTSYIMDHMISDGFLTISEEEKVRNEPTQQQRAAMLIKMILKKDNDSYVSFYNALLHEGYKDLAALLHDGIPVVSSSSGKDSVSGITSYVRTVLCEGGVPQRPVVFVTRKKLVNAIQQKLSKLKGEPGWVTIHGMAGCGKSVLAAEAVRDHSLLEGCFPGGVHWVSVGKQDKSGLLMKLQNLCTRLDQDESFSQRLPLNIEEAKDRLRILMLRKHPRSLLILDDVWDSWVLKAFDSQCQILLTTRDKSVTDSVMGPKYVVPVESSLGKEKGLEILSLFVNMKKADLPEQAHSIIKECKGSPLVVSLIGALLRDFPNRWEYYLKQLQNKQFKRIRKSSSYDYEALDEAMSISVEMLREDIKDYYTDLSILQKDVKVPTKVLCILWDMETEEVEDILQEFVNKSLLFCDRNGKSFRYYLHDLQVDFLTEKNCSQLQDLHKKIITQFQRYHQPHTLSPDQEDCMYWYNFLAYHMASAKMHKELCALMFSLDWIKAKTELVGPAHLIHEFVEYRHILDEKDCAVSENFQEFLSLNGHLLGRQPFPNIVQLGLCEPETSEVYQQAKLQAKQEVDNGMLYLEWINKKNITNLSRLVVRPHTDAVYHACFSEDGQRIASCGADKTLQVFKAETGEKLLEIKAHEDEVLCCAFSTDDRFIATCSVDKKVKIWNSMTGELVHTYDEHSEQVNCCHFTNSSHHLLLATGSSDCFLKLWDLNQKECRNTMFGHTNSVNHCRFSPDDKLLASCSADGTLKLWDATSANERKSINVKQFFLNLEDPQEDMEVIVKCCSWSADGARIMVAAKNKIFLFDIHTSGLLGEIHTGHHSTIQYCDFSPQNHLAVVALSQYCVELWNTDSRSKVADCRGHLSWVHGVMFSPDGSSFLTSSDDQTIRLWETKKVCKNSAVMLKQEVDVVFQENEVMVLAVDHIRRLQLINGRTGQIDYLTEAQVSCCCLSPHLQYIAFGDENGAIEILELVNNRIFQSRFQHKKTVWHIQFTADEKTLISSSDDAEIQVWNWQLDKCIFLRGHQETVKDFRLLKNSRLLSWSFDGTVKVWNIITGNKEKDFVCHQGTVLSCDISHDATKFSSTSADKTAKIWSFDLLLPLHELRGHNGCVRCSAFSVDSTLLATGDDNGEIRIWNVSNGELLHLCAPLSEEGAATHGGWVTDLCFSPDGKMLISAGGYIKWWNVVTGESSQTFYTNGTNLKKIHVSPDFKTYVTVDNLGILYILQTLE

Serine/threonine-protein kinase PLK4, sequence (O00444 whole entry): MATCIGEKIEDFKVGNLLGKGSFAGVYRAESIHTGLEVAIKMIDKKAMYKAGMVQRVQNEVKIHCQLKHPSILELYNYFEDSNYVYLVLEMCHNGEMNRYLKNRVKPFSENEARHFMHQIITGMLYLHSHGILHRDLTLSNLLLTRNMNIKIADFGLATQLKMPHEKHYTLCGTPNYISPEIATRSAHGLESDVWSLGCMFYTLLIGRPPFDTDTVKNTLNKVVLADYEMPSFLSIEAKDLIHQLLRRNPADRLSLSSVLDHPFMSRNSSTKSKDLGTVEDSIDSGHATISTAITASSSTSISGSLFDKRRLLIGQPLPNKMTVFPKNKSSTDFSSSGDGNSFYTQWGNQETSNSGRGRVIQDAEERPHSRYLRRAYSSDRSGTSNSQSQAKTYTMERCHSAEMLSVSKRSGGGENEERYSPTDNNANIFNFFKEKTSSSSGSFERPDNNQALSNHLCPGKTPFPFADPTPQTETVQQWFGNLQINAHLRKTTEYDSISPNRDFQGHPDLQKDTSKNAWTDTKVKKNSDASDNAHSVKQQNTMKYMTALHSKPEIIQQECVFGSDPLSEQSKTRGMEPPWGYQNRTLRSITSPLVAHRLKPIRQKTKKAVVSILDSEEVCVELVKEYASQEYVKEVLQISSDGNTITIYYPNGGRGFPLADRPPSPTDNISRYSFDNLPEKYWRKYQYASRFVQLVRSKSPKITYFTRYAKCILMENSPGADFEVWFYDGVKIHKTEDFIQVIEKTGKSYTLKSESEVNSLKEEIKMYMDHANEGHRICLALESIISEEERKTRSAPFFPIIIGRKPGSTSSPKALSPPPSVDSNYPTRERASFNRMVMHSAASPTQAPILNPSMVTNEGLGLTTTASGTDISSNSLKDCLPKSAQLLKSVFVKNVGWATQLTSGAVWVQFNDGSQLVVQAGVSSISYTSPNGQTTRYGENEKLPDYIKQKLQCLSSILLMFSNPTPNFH

In the case of Cc1cccc(NC(=O)Nc2ccc3c(c2)CCc2sc4ncnc(N)c4c2-3)c1, the Ki [1] was 0.0316 µM (active), the Ki [2] was 0.251 µM (active) and the Ki [3] was 0.0794 µM (active). For the same molecule, the Ki [4] was 0.2 µM (active), the Ki [5] was > 0.794 µM (inactive) and the Ki [6] was 3.16 µM (active). The Ki [7] was > 7.94 µM (inactive), the Ki [8] was > 7.94 µM (inactive) and the Ki [9] was > 3.16 µM (inactive). For the same molecule, the Ki [10] was > 10 µM (inactive), the Ki [11] was > 6.31 µM (inactive) and the Ki [12] was > 10 µM (inactive).
In the case of Cc1ccc(-n2sc3ccccc3c2=O)cc1, the IC50 [13] was 30.1 µM (inactive).
For CCC(=O)NC(c1ccc(C)cc1)c1ccc2cccnc2c1O (stereo not given), the AC50 [14] was 4.51 µM (active).
CC(=O)N(/N=C1\Sc2ccccc2C1=O)c1ccccc1C was tested, and the IC50 [15] was 5.13 µM (active).
